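Grown in 96-well plates, cells were treated for 48 hours with each compound at five concentrations. Insufficient inhibition: endpoint recorded as highest concentration tested. TGI: total growth inhibition.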
Assays:
Assay in all cases: NCI tumour cell line growth inhibition, 48 h
HCT-15 colon = system: HCT-15 colon
HT29 colon = system: HT29 colon
UACC-257 melanoma = system: UACC-257 melanoma
NCI-H460 lung = system: NCI-H460 lung
786-0 renal = system: 786-0 renal
HL-60(TB) leukemia = system: HL-60(TB) leukemia
NCI/ADR-RES ovarian = system: NCI/ADR-RES ovarian
PC-3 prostate = system: PC-3 prostate
TK-10 renal = system: TK-10 renal
KM12 colon = system: KM12 colon
RXF 393 renal = system: RXF 393 renal
LOX IMVI melanoma = system: LOX IMVI melanoma
T-47D breast = system: T-47D breast
OVCAR-8 ovarian = system: OVCAR-8 ovarian
MDA-MB-435 = system: MDA-MB-435
MCF7 breast = system: MCF7 breast
HCT-116 colon = system: HCT-116 colon
IGROV1 ovarian = system: IGROV1 ovarian
UACC-62 melanoma = system: UACC-62 melanoma
SK-MEL-28 melanoma = system: SK-MEL-28 melanoma
ACHN renal = system: ACHN renal
NCI-H23 lung = system: NCI-H23 lung
SK-OV-3 ovarian = system: SK-OV-3 ovarian
CAKI-1 renal = system: CAKI-1 renal
SN12C renal = system: SN12C renal
SF-539 CNS = system: SF-539 CNS
SR leukemia = system: SR leukemia
MALME-3M melanoma = system: MALME-3M melanoma
HOP-62 NSCLC = system: HOP-62 NSCLC
HCC-2998 colon = system: HCC-2998 colon
U251 CNS = system: U251 CNS
A549 NSCLC = system: A549 NSCLC
HS 578T breast = system: HS 578T breast
NCI-H522 lung = system: NCI-H522 lung
UO-31 renal = system: UO-31 renal
OVCAR-3 ovarian = system: OVCAR-3 ovarian
M14 melanoma = system: M14 melanoma
MDA-MB-231 breast = system: MDA-MB-231 breast
SF-295 CNS = system: SF-295 CNS
SF-268 CNS = system: SF-268 CNS
K-562 leukemia = system: K-562 leukemia
NCI-H226 lung = system: NCI-H226 lung
EKVX NSCLC = system: EKVX NSCLC
RPMI-8226 leukemia = system: RPMI-8226 leukemia
OVCAR-4 ovarian = system: OVCAR-4 ovarian
COLO 205 colon = system: COLO 205 colon
MDA-N = system: MDA-N
SNB-19 CNS = system: SNB-19 CNS
OVCAR-5 ovarian = system: OVCAR-5 ovarian
HOP-92 NSCLC = system: HOP-92 NSCLC
SK-MEL-2 melanoma = system: SK-MEL-2 melanoma
SK-MEL-5 melanoma = system: SK-MEL-5 melanoma
DU-145 prostate = system: DU-145 prostate
A498 renal = system: A498 renal
SW-620 colon = system: SW-620 colon
MOLT-4 leukemia = system: MOLT-4 leukemia
CCRF-CEM leukemia = system: CCRF-CEM leukemia
SNB-75 CNS = system: SNB-75 CNS

OC1CCCCCCCCCCC1SCCCCl (stereo not drawn)
TGI (HCT-15 colon): > 100 µM | TGI (HT29 colon): > 100 µM | TGI (UACC-257 melanoma): > 100 µM | TGI (NCI-H460 lung): > 100 µM | TGI (786-0 renal): > 100 µM | TGI (HL-60(TB) leukemia): > 100 µM | TGI (NCI/ADR-RES ovarian): > 100 µM | TGI (PC-3 prostate): > 100 µM | TGI (TK-10 renal): > 100 µM | TGI (KM12 colon): > 100 µM | TGI (RXF 393 renal): > 100 µM | TGI (LOX IMVI melanoma): > 100 µM | TGI (T-47D breast): > 100 µM | TGI (OVCAR-8 ovarian): > 100 µM | TGI (MDA-MB-435): > 100 µM | TGI (MCF7 breast): > 100 µM | TGI (HCT-116 colon): > 100 µM | TGI (IGROV1 ovarian): > 100 µM | TGI (UACC-62 melanoma): > 100 µM | TGI (SK-MEL-28 melanoma): > 100 µM | TGI (ACHN renal): > 100 µM | TGI (NCI-H23 lung): > 100 µM | TGI (SK-OV-3 ovarian): > 100 µM | TGI (CAKI-1 renal): > 100 µM | TGI (SN12C renal): > 100 µM | TGI (SF-539 CNS): > 100 µM | TGI (SR leukemia): > 100 µM | TGI (MALME-3M melanoma): > 100 µM | TGI (HOP-62 NSCLC): > 100 µM | TGI (HCC-2998 colon): > 100 µM | TGI (U251 CNS): > 100 µM | TGI (A549 NSCLC): > 100 µM | TGI (HS 578T breast): > 100 µM | TGI (NCI-H522 lung): > 100 µM | TGI (UO-31 renal): > 100 µM | TGI (OVCAR-3 ovarian): > 100 µM | TGI (M14 melanoma): > 100 µM | TGI (MDA-MB-231 breast): > 100 µM | TGI (SF-295 CNS): > 100 µM | TGI (SF-268 CNS): > 100 µM | TGI (K-562 leukemia): > 100 µM | TGI (NCI-H226 lung): > 100 µM | TGI (EKVX NSCLC): > 100 µM | TGI (RPMI-8226 leukemia): > 100 µM | TGI (OVCAR-4 ovarian): > 100 µM | TGI (COLO 205 colon): > 100 µM | TGI (MDA-N): > 100 µM | TGI (SNB-19 CNS): > 100 µM | TGI (OVCAR-5 ovarian): > 100 µM | TGI (HOP-92 NSCLC): > 100 µM | TGI (SK-MEL-2 melanoma): > 100 µM | TGI (SK-MEL-5 melanoma): > 100 µM | TGI (DU-145 prostate): > 100 µM | TGI (A498 renal): > 100 µM | TGI (SW-620 colon): > 100 µM | TGI (MOLT-4 leukemia): > 100 µM

CC1=NN(c2cccc(Cl)c2)C2(C1=Cc1ccccc1)C(Cl)C(=O)N2c1nc2ccccc2s1 (stereo not drawn)
TGI (HCT-15 colon): 31.5 µM | TGI (HT29 colon): 40.5 µM | TGI (UACC-257 melanoma): 74.7 µM | TGI (NCI-H460 lung): 28.5 µM | TGI (786-0 renal): 32.9 µM | TGI (HL-60(TB) leukemia): 66.4 µM | TGI (NCI/ADR-RES ovarian): 48.7 µM | TGI (PC-3 prostate): 37.6 µM | TGI (TK-10 renal): > 100 µM | TGI (KM12 colon): 33.7 µM | TGI (RXF 393 renal): 28 µM | TGI (LOX IMVI melanoma): 64 µM | TGI (CCRF-CEM leukemia): > 100 µM | TGI (T-47D breast): 59.9 µM | TGI (OVCAR-8 ovarian): > 100 µM | TGI (MDA-MB-435): 41.1 µM | TGI (MCF7 breast): 70.6 µM | TGI (HCT-116 colon): 30.3 µM | TGI (IGROV1 ovarian): 43.7 µM | TGI (SK-MEL-28 melanoma): > 100 µM | TGI (ACHN renal): 42.4 µM | TGI (NCI-H23 lung): 31.5 µM | TGI (SK-OV-3 ovarian): 52.3 µM | TGI (CAKI-1 renal): 41.9 µM | TGI (SF-539 CNS): > 100 µM | TGI (SR leukemia): 67.3 µM | TGI (HOP-62 NSCLC): 45.3 µM | TGI (HCC-2998 colon): 31.1 µM | TGI (U251 CNS): 29.7 µM | TGI (HS 578T breast): > 100 µM | TGI (NCI-H522 lung): 36 µM | TGI (UO-31 renal): 31.9 µM | TGI (OVCAR-3 ovarian): 40.6 µM | TGI (M14 melanoma): 46.2 µM | TGI (MDA-MB-231 breast): 51.3 µM | TGI (SF-295 CNS): 52.3 µM | TGI (SF-268 CNS): 97.6 µM | TGI (K-562 leukemia): > 100 µM | TGI (NCI-H226 lung): 67.8 µM | TGI (EKVX NSCLC): > 100 µM | TGI (RPMI-8226 leukemia): > 100 µM | TGI (OVCAR-4 ovarian): 64.7 µM | TGI (MDA-N): 41.3 µM | TGI (OVCAR-5 ovarian): 55.8 µM | TGI (HOP-92 NSCLC): 31.6 µM | TGI (SK-MEL-2 melanoma): 38.5 µM | TGI (SK-MEL-5 melanoma): 32.5 µM | TGI (DU-145 prostate): 33.2 µM | TGI (A498 renal): 42.8 µM | TGI (SW-620 colon): 42.4 µM | TGI (MOLT-4 leukemia): 85.9 µM

C[C@@H](c1ccccc1)C(CC#N)[C@H]1CCC[C@]1(O)C#Cc1ccc2c(c1)OCO2 (stereo partly drawn)
TGI (HCT-15 colon): 32.3 µM | TGI (HT29 colon): 28.9 µM | TGI (UACC-257 melanoma): 34.6 µM | TGI (NCI-H460 lung): 31.3 µM | TGI (786-0 renal): 31.3 µM | TGI (HL-60(TB) leukemia): 43.8 µM | TGI (NCI/ADR-RES ovarian): 33.8 µM | TGI (PC-3 prostate): 31.1 µM | TGI (TK-10 renal): 29.6 µM | TGI (KM12 colon): 31.6 µM | TGI (RXF 393 renal): 28.6 µM | TGI (LOX IMVI melanoma): 39.5 µM | TGI (CCRF-CEM leukemia): 35.5 µM | TGI (T-47D breast): 32 µM | TGI (OVCAR-8 ovarian): 32.7 µM | TGI (MDA-MB-435): 31.3 µM | TGI (MCF7 breast): 41.3 µM | TGI (IGROV1 ovarian): 33.9 µM | TGI (UACC-62 melanoma): 32.7 µM | TGI (SK-MEL-28 melanoma): 30.1 µM | TGI (ACHN renal): 30.8 µM | TGI (NCI-H23 lung): 35.5 µM | TGI (SK-OV-3 ovarian): 34.6 µM | TGI (CAKI-1 renal): 30.8 µM | TGI (SF-539 CNS): 24.1 µM | TGI (SR leukemia): 46.6 µM | TGI (MALME-3M melanoma): 33.8 µM | TGI (HOP-62 NSCLC): 31.3 µM | TGI (HCC-2998 colon): 30.3 µM | TGI (U251 CNS): 32.1 µM | TGI (A549 NSCLC): 29.8 µM | TGI (HS 578T breast): 43.7 µM | TGI (NCI-H522 lung): 32.4 µM | TGI (UO-31 renal): 27.7 µM | TGI (OVCAR-3 ovarian): 29.2 µM | TGI (M14 melanoma): 30.9 µM | TGI (MDA-MB-231 breast): 33.7 µM | TGI (SF-295 CNS): 32.4 µM | TGI (SF-268 CNS): 38.8 µM | TGI (K-562 leukemia): 47.8 µM | TGI (NCI-H226 lung): 33.1 µM | TGI (SNB-75 CNS): 32 µM | TGI (EKVX NSCLC): 35.4 µM | TGI (RPMI-8226 leukemia): 62.5 µM | TGI (OVCAR-4 ovarian): 32.6 µM | TGI (COLO 205 colon): 33.1 µM | TGI (MDA-N): 30.4 µM | TGI (SNB-19 CNS): 29.8 µM | TGI (OVCAR-5 ovarian): 30.8 µM | TGI (HOP-92 NSCLC): 28.4 µM | TGI (SK-MEL-2 melanoma): 32.7 µM | TGI (SK-MEL-5 melanoma): 32.8 µM | TGI (DU-145 prostate): 31.6 µM | TGI (A498 renal): 34.9 µM | TGI (SW-620 colon): 33.2 µM | TGI (MOLT-4 leukemia): 25.2 µM
